pIC50: −log10 of the molar value.

The assay deals with T1, Human IL-17A (Homo sapiens, UniProt Q16552).
T1 sequence (Q16552 20-155 limits assumed): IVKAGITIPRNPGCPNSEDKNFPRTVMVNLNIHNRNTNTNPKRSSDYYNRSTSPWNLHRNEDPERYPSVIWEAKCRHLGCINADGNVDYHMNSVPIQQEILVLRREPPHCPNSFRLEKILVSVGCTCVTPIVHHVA
Briefly: IL-17A enzyme-linked immunosorbent assay (competitive ELISA, IL-17A/IL-17Ra receptor-ligand binding). Particulars: human IL-17A coated plate, human IL-17Ra, read-out: IC50, inhibitory activity of compounds on human IL-17A. More on the design: purchased Sino Biological Inc. 12047-H07B. An outline of the steps:
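Competitive ELISA with plates coated with human IL-17A at 0.2 μg/ml, blocked with 5% skim milk. Compound pre-incubated with IL-17A 10 min at 25 °C, then 16 nM IL-17Ra stock added for 30 min. Bound receptor detected by anti-Fc HRP/TMB, A450. IC50 from variable-slope fit of blank-corrected residual activity.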
In the case of `Cc1[nH]nc2c1-c1cc(F)c(NC(=O)[C@@H](NC(=O)c3ccnn3C(C)C)C(C3CC3)C3CC3)cc1CN(C1CCOCC1)CC2` [compound 174], the pIC50 (usually the IC50 on a negative log10 scale, so that one unit is a factor of ten) was at least 7.30.

Consider `Cc1[nH]nc2c1-c1cc(F)c(NC(=O)[C@@H](NC(=O)c3ccnn3C(C)C)C(C3CC3)C3CC3)cc1CN(C1CC(F)(F)C1)C(=O)C2` [compound 169], for which the pIC50 was at least 7.30.

As to `Cc1[nH]nc2c1-c1cc(F)c(NC(=O)[C@@H](NC(=O)c3ccnn3CC3(C#N)CC3)C(C3CC3)C3CC3)cc1COCC2` [compound 114], the pIC50 is at least 7.30.

For the molecule `Cc1[nH]nc2c1-c1cc(F)c(NC(=O)[C@@H](NC(=O)c3cnnn3CCOC(F)F)C(C3CC3)C3CC3)cc1COCC2` [compound 108], the pIC50 was at least 7.30.

As for `Cc1[nH]nc2c1-c1cc(F)c(NC(=O)[C@@H](NC(=O)c3ccnn3C(C)CF)C(C3CC3)C3CC3)cc1COCC2` (single isomer, unassigned) [compound 42b], the pIC50 was at least 7.30.

On to `Cc1[nH]nc2c1-c1cc(F)c(NC(=O)[C@@H](NC(=O)c3ccnn3C(C)C)C(C3CC3)C3CC3)cc1CN(C(C)C(F)(F)F)C(=O)C2` (single isomer, unassigned) [compound 186a], for which the pIC50 was at least 7.30.

Consider `Cc1[nH]nc2c1-c1cnc(NC(=O)[C@@H](NC(=O)c3ccnn3C(C)C)C(C3CC3)C3CC3)cc1CN(CC(C)(F)F)CC2` [compound 199], for which the pIC50 is at least 7.30.

`CCn1nccc1C(=O)N[C@H](C(=O)Nc1cc2c(cc1F)-c1c(n[nH]c1C)CCOC2)C(C1CC1)C1CC1` [compound 16]: the negative logarithm of the IC50 (pIC50) was at least 7.30.

For `Cc1[nH]nc2c1-c1cc(F)c(NC(=O)[C@@H](NC(=O)c3ccnn3CCOC(C)C)C(C3CC3)C3CC3)cc1COCC2` [compound 98], the pIC50 was at least 7.30.

Consider `Cc1[nH]nc2c1-c1cnc(NC(=O)[C@@H](NC(=O)c3ccnn3C(C)C)C(C3CC3)C3CC3)cc1CN(C1CC(F)(F)C1)C(=O)C2` [compound 194], for which the pIC50 is at least 7.30.

Take `[2H]C([2H])([2H])C([2H])([2H])n1nccc1C(=O)N[C@H](C(=O)Nc1cc2c(cc1F)-c1c(n[nH]c1C)CCOC2)C(C1CC1)C1CC1` [compound 90]: the pIC50 was at least 7.30.

Consider `Cc1[nH]nc2c1-c1cnc(NC(=O)[C@@H](NC(=O)c3conc3C(C)C)C(C3CC3)C3CC3)cc1CN(C1CC1)CC2` [compound 214], for which the pIC50 is at least 7.30.

As for `Cc1[nH]nc2c1-c1cnc(NC(=O)[C@@H](NC(=O)/C(F)=C\C3CC3)C(C3CC3)C3CC3)cc1COCC2` [compound 239], the pIC50 was at least 7.30.

For the molecule `Cc1[nH]nc2c1-c1cnc(NC(=O)[C@@H](NC(=O)c3ccnn3C(C)C)C(C3CC3)C3CC3)cc1CN(CC(F)F)C(=O)C2` [compound 192], the pIC50 was at least 7.30.

For the molecule `Cc1[nH]nc2c1-c1cc(F)c(NC(=O)[C@@H](NC(=O)c3ccnn3CCC(O)C(F)(F)F)C(C3CC3)C3CC3)cc1COCC2` (stereo partly shown) [compound 81], the pIC50 was at least 7.30.

As for `Cc1[nH]nc2c1-c1cc(F)c(NC(=O)[C@@H](NC(=O)c3ccnn3C(C)C)C(C3CC3)C3CC3)cc1CN(CC1CC1)CC2` [compound 166], the negative logarithm of the IC50 (pIC50) is at least 7.30.

In the case of `Cc1[nH]nc2c1-c1cc(F)c(NC(=O)[C@@H](NC(=O)c3ccnn3C(C)C)C(C3CC3)C3CC3)cc1CN(C1CCOCC1)C(=O)C2` [compound 167], the negative logarithm of the IC50 (pIC50) is at least 7.30.

Turning to `Cc1[nH]nc2c1-c1cc(F)c(NC(=O)[C@@H](NC(=O)c3ccnn3CCCF)C(C3CC3)C3CC3)cc1CN(C1CC1)CC2` [compound 218], the pIC50 is at least 7.30.

As for `Cc1[nH]nc2c1-c1cc(F)c(NC(=O)[C@@H](NC(=O)c3ccnn3C(C)C3CC3)C(C3CC3)C3CC3)cc1COCC2` (single isomer, unassigned) [compound 41a], the pIC50 is at least 7.30.

As to `Cc1[nH]nc2c1-c1cnc(NC(=O)[C@@H](NC(=O)c3ccnn3C3CC3)C(C3CC3)C3CC3)cc1COCC2` [compound 237], the pIC50 is at least 7.30.

For the molecule `Cc1[nH]nc2c1-c1cnc(NC(=O)[C@@H](NC(=O)c3ccnn3C(C)C)C(C3CC3)C3CC3)cc1CN(CC(F)F)CC2` [compound 202], the pIC50 was at least 7.30.

With `Cc1[nH]nc2c1-c1cnc(NC(=O)[C@@H](NC(=O)c3ccnn3C(C)C)C(C3CC3)C3CC3)cc1CN(C(C)C)CC2` [compound 200], the pIC50 is at least 7.30.

In the case of `Cc1[nH]nc2c1-c1cc(F)c(NC(=O)[C@@H](NC(=O)c3ccnn3CCOCC(F)(F)F)C(C3CC3)C3CC3)cc1COCC2` [compound 104], the pIC50 is at least 7.30.

Take `Cc1[nH]nc2c1-c1cc(F)c(NC(=O)[C@@H](NC(=O)c3ccnn3CC3CCC3)C(C3CC3)C3CC3)cc1COCC2` [compound 60]: the pIC50 is at least 7.30.

Take `Cc1[nH]nc2c1-c1cc(F)c(NC(=O)[C@@H](NC(=O)c3ccnn3C(C)C)C(C3CC3)C3CC3)cc1CN(C(C)C(F)(F)F)C(=O)C2` (mixture of isomers) [compound 173]: the pIC50 was at least 7.30.

Take `Cc1[nH]nc2c1-c1cc(F)c(NC(=O)[C@@H](NC(=O)/C(F)=C\C(C)C)C(C3CC3)C3CC3)cc1COCC2` [compound 229]: the pIC50 is at least 7.30.

For `Cc1[nH]nc2c1-c1cnc(NC(=O)[C@@H](NC(=O)c3ccnn3C(C)C3CC3)C(C3CC3)C3CC3)cc1COCC2` (single isomer, unassigned) [compound 188b], the pIC50 was at least 7.30.

For the molecule `[2H]C([2H])(C1CC1)n1nccc1C(=O)N[C@H](C(=O)Nc1cc2c(cc1F)-c1c(n[nH]c1C)CCOC2)C(C1CC1)C1CC1` [compound 76], the pIC50 is at least 7.30.

`Cc1[nH]nc2c1-c1cnc(NC(=O)[C@@H](NC(=O)c3ccnn3C(C)C)C(C3CC3)C3CC3)cc1CN(C1CC1)CC2` [compound 198]: the pIC50 is at least 7.30.

Consider `Cc1[nH]nc2c1-c1cc(F)c(NC(=O)[C@@H](NC(=O)c3ccnn3C(C)C)C(C3CC3)C3CC3)cc1CN(C1CC(F)(F)C1)CC2` [compound 176], for which the pIC50 was at least 7.30.

On to `Cc1[nH]nc2c1-c1ccc(NC(=O)[C@@H](NC(=O)c3ccnn3C)C(C3CC3)C3CC3)cc1COCC2` [compound 2], for which the pIC50 was at least 7.30.

`COCCCn1nccc1C(=O)N[C@H](C(=O)Nc1cc2c(cc1F)-c1c(n[nH]c1C)CCOC2)C(C1CC1)C1CC1` [compound 58]: the negative-log IC50 (pIC50) is at least 7.30.

With `Cc1[nH]nc2c1-c1cnc(NC(=O)[C@@H](NC(=O)c3ccnn3CC(F)(F)F)C(C3CC3)C3CC3)cc1COCC2` [compound 236], the pIC50 was at least 7.30.

`Cc1[nH]nc2c1-c1cc(F)c(NC(=O)[C@@H](NC(=O)c3ccnn3CC3CC3)C(C3CC3)C3CC3)cc1COCC2` [compound 59]: the pIC50 is at least 7.30.

`CCc1nocc1C(=O)N[C@H](C(=O)Nc1cc2c(cn1)-c1c(n[nH]c1C)CCOC2)C(C1CC1)C1CC1` [compound 240]: the pIC50 is at least 7.30.

In the case of `Cc1[nH]nc2c1-c1cnc(NC(=O)[C@@H](NC(=O)c3ccnn3C(C)C)C(C3CC3)C3CC3)cc1CN(CC(C)(F)F)C(=O)C2` [compound 193], the pIC50 is at least 7.30.

Take `Cc1[nH]nc2c1-c1cc(F)c(NC(=O)[C@@H](NC(=O)c3ccnn3C(C)C)C(C3CC3)C3CC3)cc1CN(C1CCC1)C(=O)C2` [compound 170]: the pIC50 is at least 7.30.

Take `Cc1[nH]nc2c1-c1cc(F)c(NC(=O)[C@@H](NC(=O)c3ccnn3C(C)C)C(C3CC3)C3CC3)cc1COCC2` [compound 15]: the pIC50 is at least 7.30.

As for `CSCCn1nccc1C(=O)N[C@H](C(=O)Nc1cc2c(cc1F)-c1c(n[nH]c1C)CCOC2)C(C1CC1)C1CC1` [compound 61], the pIC50 was at least 7.30.

Regarding `Cc1[nH]nc2c1-c1cc(F)c(NC(=O)[C@@H](NC(=O)c3ccnn3CCCC(F)(F)F)C(C3CC3)C3CC3)cc1COCC2` [compound 84], the pIC50 is at least 7.30.

On to `Cc1[nH]nc2c1-c1cc(F)c(NC(=O)[C@@H](NC(=O)c3ccnn3CCC(F)F)C(C3CC3)C3CC3)cc1COCC2` [compound 65], for which the pIC50 is at least 7.30.

With `CCOCCn1nccc1C(=O)N[C@H](C(=O)Nc1cc2c(cc1F)-c1c(n[nH]c1C)CCOC2)C(C1CC1)C1CC1` [compound 100], the pIC50 was at least 7.30.

For `Cc1[nH]nc2c1-c1ccc(NC(=O)[C@@H](NC(=O)c3ccnn3C(C)C)C(C3CC3)C3CC3)cc1CNC(=O)C2` [compound 27], the pIC50 is at least 7.30.

For `Cc1[nH]nc2c1-c1cc(F)c(NC(=O)[C@@H](NC(=O)/C(F)=C\C3CC3)C(C3CC3)C3CC3)cc1COCC2` [compound 230], the pIC50 is at least 7.30.

Turning to `[2H]C([2H])([2H])C([2H])(n1nccc1C(=O)N[C@H](C(=O)Nc1cc2c(cn1)-c1c(n[nH]c1C)CCOC2)C(C1CC1)C1CC1)C([2H])([2H])[2H]` [compound 54], the pIC50 was at least 7.30.

Turning to `Cc1[nH]nc2c1-c1cnc(NC(=O)[C@@H](NC(=O)c3conc3C3CC3)C(C3CC3)C3CC3)cc1COCC2` [compound 241], the pIC50 is at least 7.30.

For the molecule `Cc1[nH]nc2c1-c1cc(F)c(NC(=O)[C@@H](NC(=O)c3ccnn3C(C)C)C3CCCCC3)cc1COCC2` [compound 48], the pIC50 was at least 7.30.

Regarding `Cc1[nH]nc2c1-c1cnc(NC(=O)[C@@H](NC(=O)c3ccnn3C(C)C)C(C3CC3)C3CC3)cc1CN(C1CC1)C(=O)C2` [compound 191], the pIC50 is at least 7.30.

On to `Cc1[nH]nc2c1-c1cc(F)c(NC(=O)[C@@H](NC(=O)c3ccnn3CC(C)(F)F)C(C3CC3)C3CC3)cc1COCC2` [compound 87], for which the pIC50 is at least 7.30.

With `CCCn1nccc1C(=O)N[C@H](C(=O)Nc1cc2c(cc1F)-c1c(n[nH]c1C)CCOC2)C(C1CC1)C1CC1` [compound 62], the pIC50 was at least 7.30.

In the case of `Cc1[nH]nc2c1-c1cc(F)c(NC(=O)[C@@H](NC(=O)c3ccnn3CCOC(C)(C)C)C(C3CC3)C3CC3)cc1COCC2` [compound 113], the pIC50 is at least 7.30.

`[2H]C([2H])([2H])C([2H])(n1nccc1C(=O)N[C@H](C(=O)Nc1ccc2c(c1)COCCc1n[nH]c(C)c1-2)C(C1CC1)C1CC1)C([2H])([2H])[2H]` [compound 52]: the pIC50 is at least 7.30.
